Some results are limits rather than exact numbers.

Type in all cases: cell-based, human
For experiment [1], the system named is MMA Patient fibroblasts (GM01673, Coriell Institute for Medical Research). Briefly: Mitochondrial fusion and networking (high-content imaging). The settings on record: 10 μM compound, 2 hours, compared to vehicle control. On the set-up: key: Mitochondrial elongation and networking was described as slight, mild or good; Mitochondrial elongation and networking was described as slight, mild or good; Mitochondrial elongation and networking was described as slight, mild or good. On the procedure:
Cells were seeded in 96-well plates (density 3000 cells/well) in culture minimum MEM (GIBCO, 10370-021) supplemented with 2 mM L-Glutamine (Thermo Fisher Scientific), 15% FBS (Thermo Fisher Scientific 26400044) and 1% penicillin/streptomycin. Cells were incubated for 48 hours (37° C, 5% CO2), then treated with 10 μM compounds from the present disclosure, 1% DMSO (vehicle) or 5 μM FCCP (control) for 2 hours in fasted conditional medium: Agilent XF DMEM (Agilent 103575-100), pH 7.4 supplemented with 10% FBS (Thermo Fisher Scientific 26400044), 0.03% penicillin/streptomycin 1 mM glucose, 2 mM L-glutamine and 1 mM pyruvate.
After treatment, media was removed, and cells were stained with 100 μl of 1×mixture dye solution of 1 μg/mL JC-1 (Invitrogen Cat #T3168) and 50 ng/ml MitoTracker deep red (Invitrogen Cat #M22426) at 37° C. for 30 minutes. Next, staining was removed, the cells were washed once with 150 μl PBS, and 150 μl of fasted conditional medium (described above) is added to each well. Analysis was carried out on live cells using a Thermo Scientific CellInsight CX7 LZR High-Content Screening Platform. Mitochondrial elongation and networking was described as slight, mild or good.

In experiment [2] the test system is primary adherent fibroblast cell line derived from an Methylmalonic Acidemia (MMA) patient (GM01673, Coriell Institute for Medical Research). Briefly: Mitochondrial respiration (Seahorse XFe96, OCR), Spare Capacity AUC. The note with it: 10 μM compound; medium with 10 mM glucose, 2 mM glutamine, 1 mM pyruvate; 1 μM FCCP for 20 cycles; relative to vehicle. On the procedure:
The effect of the compounds of the present disclosure on mitochondrial respiration was measured with a XFe96 Extracellular Flux Analyzer (Seahorse Bioscience, Agilent Technologies) and Oxygen consumption Rate (OCR) and Extracellular acidification rate (ECAR) determined.
Cell culture and treatments. Primary adherent fibroblasts were cultured in minimum essential medium (MEM) (Gibco, 25030081) supplemented with 2 mM L-Glutamine (Gibco, 25030081), 15% fetal bovine serum (FBS) (Gibco, 26400044) and 1% penicillin/streptomycin (Gibco, 5140122) at 37° C. and 5% CO2. Cells were collected for either passaging or experiment at ˜70-80% confluence. Cells were obtained by trypsinization and seeded at 10,000 cells/well in cell culture microplates (Seahorse Bioscience, 101085-004) and allowed to adhere for 48 hours in culture media. […]
Determining the optimized cell density and concentrations for stress test, such as FCCP, were achieved through methods well known to those of skill in the art. After baseline measurements of OCR, cells were challenged with compounds of the present disclosure at different concentrations (10 to 50 μM) or vehicle (DMSO, 0.1%) and a post-compound baseline was recorded. OCR was measured after sequentially adding to each well 1.5 μg/ml oligomycin (inhibitor of ATP synthase Sigma-Aldrich, 753531), then maximal OCR was determined with carbonyl cyanide 4-(trifluoromethoxy) phenylhydrazone (FCCP, Sigma-Aldrich, C2920), (uncoupler of oxidative phosphorylation) and 1.0 μM of rotenone (Sigma-Aldrich, R8875) plus antimycin A (Sigma-Aldrich, A8674) (inhibitors of mitochondrial complex I and III) for determination of rotenone-antimycin insensitive respiration together with Hoechst for nuclear staining in situ when normalized to cell counts. After the analysis and nuclear staining, the XFp microplate was transferred to the Cytation 5, and the nuclear images were captured, the individual nuclei were identified and counted by BioTek Gen5 software. […]

The next experiment has as its system HepG2 cells. As to the kind of experiment: Glucose uptake (Glucose Uptake-Glo assay). The settings on record: 10 μM compound; insulin control 100 nM. On the procedure:
The effect of compounds from the present disclosure on glucose uptake was determined in HepG2 cells (ATCC, HB-8065) using the glucose uptake Glo Assay Kit (Promega, J1343 according to manufacturer instructions. HepG2 cells were cultured in complete DMEM-glucose media (Gibco) supplemented with 10% FBS (37° C. incubator with 5% CO2) and seeded in 96-well plates at 30,000 cells/well. After removing the complete media, 100 μL/well of serum-free, high-glucose DMEM media were added to the wells and incubated overnight (37° C. incubator with 5% CO2). Media was then replaced with 100 μL/well DPBS containing 0.6% BSA and starved for 1 hour. Next, DPBS was removed and 45 μl/well of insulin (100 nM) or compounds (10 μM-50 μM) were added to the wells and incubated for 10 minutes (37° C. incubator with 5% CO2). Insulin and compounds were prepared in DPBS with 0.6% BSA with a final DMSO concentration of 0.1%. Next, 5 μL of 2DG (10 mM) in DPBS were added per well and allowed to incubate for 20 minutes followed by addition of 25 μL stop buffer. 37.5 μL of the mixture were then transferred to a new plate and 12.5 μL of Neutralization buffer added to the wells. After, 50 μL of 2DG6P detection Reagent were added and incubated for 0.5-1 hour at room temperature. Luminescence was measured with 0.3-1 second integration on a luminometer. […]

Regarding `CC(C)(CO)[C@H]1OC(=O)CCC(=O)SCCNC(=O)CCNC1=O` [Compound 61, (R)-2-(1-hydroxy-2-methylpropan-2-yl)-1-oxa-11-thia-4,8-diazacyclopentadecane-3,7,12,15-tetraone], in experiment [1], the “mitochondrial elongation and networking” value is “slight”. Moreover, the “increase of Spare Capacity AUC” value in experiment [2] is reported as more than 20%. In addition, the “stimulation of Glucose Uptake, % of insulin control” value with HepG2 cells is on record as “at least 15%”.

The record behind these values is patent publication US20230348506A1, “MACROCYCLIC PANTETHEINE DERIVATIVES AND USES THEREOF” (VectivBio Comet AG, priority 2019, published 2023).
